Results taken from US9624214B2, “Amino-substituted imidazo[1,2-a]pyridinecarboxamides and their use” (BAYER PHARMA AKTIENGESELLSCHAFT, priority 2012, dated 2017).

Target: T1, recombinant guanylate cyclase reporter cell line (Rattus norvegicus, UniProt P19686+P20595)
T1 construct: expressed in transfected cells
T1 sequence (P20595 1-619): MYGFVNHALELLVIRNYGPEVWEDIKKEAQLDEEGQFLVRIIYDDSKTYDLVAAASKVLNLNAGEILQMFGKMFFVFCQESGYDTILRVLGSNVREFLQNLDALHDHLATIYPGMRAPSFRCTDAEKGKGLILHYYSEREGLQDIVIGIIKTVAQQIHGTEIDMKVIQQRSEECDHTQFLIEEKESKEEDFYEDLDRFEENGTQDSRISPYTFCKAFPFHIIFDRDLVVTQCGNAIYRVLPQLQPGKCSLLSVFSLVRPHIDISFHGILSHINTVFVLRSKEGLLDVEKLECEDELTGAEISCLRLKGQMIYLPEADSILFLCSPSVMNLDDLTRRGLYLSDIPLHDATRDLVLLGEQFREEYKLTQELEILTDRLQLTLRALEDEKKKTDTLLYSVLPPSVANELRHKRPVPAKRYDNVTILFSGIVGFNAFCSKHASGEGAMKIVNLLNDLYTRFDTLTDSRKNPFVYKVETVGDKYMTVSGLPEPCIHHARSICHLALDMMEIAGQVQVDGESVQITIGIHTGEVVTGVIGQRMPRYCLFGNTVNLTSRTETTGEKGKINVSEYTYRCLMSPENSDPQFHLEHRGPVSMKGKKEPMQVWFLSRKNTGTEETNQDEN
T1 sequence (P19686 1-690): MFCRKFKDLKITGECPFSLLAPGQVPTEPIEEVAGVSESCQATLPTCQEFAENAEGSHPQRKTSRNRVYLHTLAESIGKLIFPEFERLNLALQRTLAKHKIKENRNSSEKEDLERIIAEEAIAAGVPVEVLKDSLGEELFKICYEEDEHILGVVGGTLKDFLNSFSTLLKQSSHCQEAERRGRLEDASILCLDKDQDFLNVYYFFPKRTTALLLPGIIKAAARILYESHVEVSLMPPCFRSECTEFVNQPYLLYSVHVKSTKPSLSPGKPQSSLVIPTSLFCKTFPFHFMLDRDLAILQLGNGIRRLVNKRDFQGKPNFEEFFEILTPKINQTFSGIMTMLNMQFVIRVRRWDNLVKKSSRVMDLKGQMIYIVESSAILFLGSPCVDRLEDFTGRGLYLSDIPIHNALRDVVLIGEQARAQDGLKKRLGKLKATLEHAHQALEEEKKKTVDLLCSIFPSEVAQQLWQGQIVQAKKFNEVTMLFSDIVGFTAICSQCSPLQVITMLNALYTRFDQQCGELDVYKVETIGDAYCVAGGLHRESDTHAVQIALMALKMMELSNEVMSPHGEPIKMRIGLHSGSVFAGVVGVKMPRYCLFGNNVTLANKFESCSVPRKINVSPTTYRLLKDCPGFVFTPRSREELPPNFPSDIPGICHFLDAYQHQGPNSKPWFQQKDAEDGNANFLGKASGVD
Test: B-2. Action on recombinant guanylate cyclase reporter cell line
Type: cell-based
Details: MEC = minimal effective concentration; in some cases mean values from individual determinations
Method in brief: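 Compounds are tested on whole cells carrying a guanylate cyclase reporter construct. The lowest concentration giving an effect is recorded as the MEC.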

Compound | MEC
Cc1nc2c(OCc3c(F)cccc3F)cccn2c1C(=O)NC1CC2CCC(C1)N2C (stereo not drawn) [Example 91, 8-[(2,6-difluorobenzyl)oxy]-2-methyl-N-(8-methyl-8-azabicyclo[3.2.1]oct-3-yl)imidazo[1,2-a]pyridine-3-carboxamide] | 1.00 µM
Cc1nc2c(OCc3c(F)cccc3F)cccn2c1C(=O)NC1CN2CCC1CC2 (stereo not drawn) [Example 92, N-(1-azabicyclo[2.2.2]oct-3-yl)-8-[(2,6-difluorobenzyl)oxy]-2-methylimidazo[1,2-a]-pyridine-3-carboxamide] | 0.30 µM
Cc1cc(OCc2c(F)cccc2F)c2nc(C)c(C(=O)NCC(C)(C)NCC(F)(F)F)n2c1 [Example 94, 8-[(2,6-Difluorobenzyl)oxy]-2,6-dimethyl-N-{2-methyl-2-[(2,2,2-trifluoroethyl)amino]propyl}-imidazo[1,2-a]pyridine-3-carboxamide] | 0.30 µM
[2H]C([2H])(Oc1cccn2c(C(=O)NC(CN)c3ccc(F)c(F)c3)c(C)nc12)c1c(F)cccc1F (stereo not drawn) [Example 97, ent-N-[2-Amino-1-(3,4-difluorophenyl)ethyl]-8-{[(2,6-difluorophenyl) (^2H2)methyl]oxy}-2-methylimidazo[1,2-a]pyridine-3-carboxamide] | 0.10 µM
Cc1nc2c(OCc3ccccc3F)cccn2c1C(=O)NC(CN)c1ccc(F)c(F)c1 (stereo not drawn) [Example 98, ent-N-[2-Amino-1-(3,4-difluorophenyl)ethyl]-8-[(2-fluorobenzyl)oxy]-2-methylimidazo[1,2-a]-pyridine-3-carboxamide] | 1.00 µM
Cc1nc2c(OCc3cccc(F)c3F)cccn2c1C(=O)NC(CN)c1ccc(F)c(F)c1 (stereo not drawn) [Example 99, ent-N-[2-amino-1-(3,4-difluorophenyl)ethyl]-8-[(2,3-difluorobenzyl)oxy]-2-methylimidazo[1,2-a]pyridine-3-carboxamide] | 1.00 µM
Cc1nc2c(OCc3c(F)ccc(F)c3F)cccn2c1C(=O)NC(CN)c1ccc(F)c(F)c1 (stereo not drawn) [Example 100, ent-N-[2-amino-1-(3,4-difluorophenyl)ethyl]-2-methyl-8-[(2,3,6-trifluorobenzyl)oxy] imidazo[1,2-a]pyridine-3-carboxamide] | 0.30 µM
Cc1nc2c(OCc3c(F)cc(F)cc3F)cccn2c1C(=O)NC(CN)c1ccc(F)c(F)c1 (stereo not drawn) [Example 101, ent-N-[2-amino-1-(3,4-difluorophenyl)ethyl]-2-methyl-8-[(2,4,6-trifluorobenzyl)oxy] imidazo[1,2-a]pyridine-3-carboxamide] | 1.00 µM
Cc1nc2c(OCc3c(F)cccc3Cl)cccn2c1C(=O)NC(CN)c1ccc(F)c(F)c1 (stereo not drawn) [Example 102, ent-N-[2-amino-1-(3,4-difluorophenyl)ethyl]-8-[(2-chloro-6-fluorobenzyl)oxy]-2-methylimidazo[1,2-a]pyridine-3-carboxamide] | 1.00 µM
Cc1nc2c(OCc3c(F)cccc3F)cccn2c1C(=O)NCC(C)(C)CN [Example 103, N-(3-amino-2,2-dimethylpropyl)-8-[(2,6-difluorobenzyl)oxy]-2-methylimidazo[1,2-a]-pyridine-3-carboxamide] | 3.00 µM
Cc1nc2c(OCc3c(F)cccc3F)cc(Cl)cn2c1C(=O)NCCC(C)(C)N [Example 104, N-(3-Amino-3-methylbutyl)-6-chloro-8-[(2,6-difluorobenzyl)oxy]-2-methylimidazo[1,2-a]-pyridine-3-carboxamide] | 0.30 µM
Cc1cc(OCc2c(F)cccc2F)c2nc(C)c(C(=O)NCCC(C)(C)N)n2c1 [Example 114, N-(3-amino-3-methylbutyl)-8-[(2,6-difluorobenzyl)oxy]-2,6-dimethylimidazo[1,2-a]-pyridine-3-carboxamide] | 0.30 µM
Cc1cc(OCc2c(F)cccc2F)c2nc(C)c(C(=O)NC[C@@H]3CCCN3)n2c1 [Example 115, 8-[(2,6-difluorobenzyl)oxy]-2,6-dimethyl-N-[(2S)-pyrrolidin-2-ylmethyl]imidazo[1,2-a]-pyridine-3-carboxamide] | 1.00 µM
Cc1cc(OCc2c(F)cccc2F)c2nc(C)c(C(=O)NC[C@H]3CCCN3)n2c1 [Example 116, 8-[(2,6-difluorobenzyl)oxy]-2,6-dimethyl-N-[(2R)-pyrrolidin-2-ylmethyl]imidazo[1,2-a]-pyridine-3-carboxamide] | 3.00 µM
Cc1nc2c(OCc3c(F)cccc3F)cccn2c1C(=O)NCCC(C)(C)N [Example 117, N-(3-amino-3-methylbutyl)-8-[(2,6-difluorobenzyl)oxy]-2-methylimidazo[1,2-a]-pyridine-3-carboxamide] | 1.00 µM
Cc1nc2c(OCc3c(F)cccc3F)cccn2c1C(=O)NC(C)[C@H](C)N (stereo partly drawn) [Example 120, N-[(3S)-3-Aminobutan-2-yl]-8-[(2,6-difluorobenzyl)oxy]-2-methylimidazo[1,2-a]pyridine-3-carboxamide] | 0.30 µM
Cc1nc2c(OCc3c(F)cccc3F)cccn2c1C(=O)NC(C)[C@@H](C)N (stereo partly drawn) [Example 121, N-[(3R)-3-Aminobutan-2-yl]-8-[(2,6-difluorobenzyl)oxy]-2-methylimidazo[1,2-a]pyridine-3-carboxamide] | 0.30 µM
Cc1nc2c(OCc3c(F)cccc3F)cccn2c1C(=O)NC(CN)COc1ccc(F)c(F)c1 (stereo not drawn) [Example 124, ent-N-[1-Amino-3-(3,4-difluorophenoxy)propan-2-yl]-8-[(2,6-difluorobenzyl)oxy]-2-methylimidazo[1,2-a]pyridine-3-carboxamide Ditrifluoroacetate] | 1.00 µM
Cc1nc2c(OCc3c(F)cccc3F)cccn2c1C(=O)NCCNC(C)C [Example 130, 8-[(2,6-difluorobenzyl)oxy]-N-[2-(isopropylamino)ethyl]-2-methylimidazo[1,2-a]-pyridine-3-carboxamide] | 1.00 µM
Cc1nc2c(OCc3c(F)cccc3F)cccn2c1C(=O)NCCN1CCS(=O)(=O)CC1 [Example 131, 8-[(2,6-difluorobenzyl)oxy]-N-[2-(1,1-dioxidothiomorpholin-4-yl)ethyl]-2-methylimidazo[1,2-a]pyridine-3-carboxamide] | 3.00 µM
Cc1nc2c(OCc3c(F)cccc3F)cccn2c1C(=O)NCCN1CCN(C)CC1 [Example 133, 8-[(2,6-difluorobenzyl)oxy]-2-methyl-N-[2-(4-methylpiperazin-1-yl)ethyl]imidazo[1,2-a]-pyridine-3-carboxamide] | 3.00 µM
Cc1cc(OCc2c(F)cccc2F)c2nc(C)c(C(=O)NCCN3CCOCC3)n2c1 [Example 136, 8-[(2,6-difluorobenzyl)oxy]-2,6-dimethyl-N-[2-(morpholin-4-yl)ethyl]imidazo[1,2-a]pyridine-3-carboxamide] | 0.10 µM
Cc1cc(OCc2c(F)cccc2F)c2nc(C)c(C(=O)NCCN3CCN(C)CC3)n2c1 [Example 137, 8-[(2,6-difluorobenzyl)oxy]-2,6-dimethyl-N-[2-(4-methylpiperazin-1-yl)ethyl]imidazo[1,2-a]-pyridine-3-carboxamide] | 1.00 µM
Cc1cc(OCc2c(F)cccc2F)c2nc(C)c(C(=O)NCCN3CCN(C(C)C)CC3)n2c1 [Example 139, 8-[(2,6-difIuorobenzyl)oxy]-N-[2-(4-isopropylpiperazin-1-yl)ethyl]-2,6-dimethylimidazo[1,2-a]pyridine-3-carboxamide] | 1.00 µM
Cc1nc2c(OCc3c(F)cccc3F)cc(F)cn2c1C(=O)NCC(C)(C)N [Example 140, N-(2-Amino-2-methylpropyl)-8-[(2,6-difluorobenzyl)oxy]-6-fluoro-2-methylimidazo[1,2-a]-pyridine-3-carboxamide] | 1.00 µM
Cc1nc2c(OCc3c(F)cccc3F)cccn2c1C(=O)NC(C)(C)C(C)(C)N [Example 141, N-(3-Amino-2,3-dimethylbutan-2-yl)-8-[(2,6-difluorobenzyl)oxy]-2-methylimidazo[1,2-a]pyridine-3-carboxamide] | 3.00 µM
Cc1nc2c(OCc3c(F)cccc3F)cccn2c1C(=O)NCCN1CCC(F)(F)C1 [Example 143, 8-[(2,6-difluorobenzyl)oxy]-N-[2-(3,3-difluoropyrrolidin-l-yl)ethyl]-2-methylimidazo[1,2-a]pyridine-3-carboxamide] | 0.30 µM
